Tests used:
[1] = Maximum tolerated dose (MTD) in the mouse; format: in vivo; details: for Deaths: 21 days; for MTD at 21 days: female, NMRI-nude (nu/nu), mouse, in vivo, oral, 21-day treatment
Protocol: The MTD was defined as the highest dose which could be administered without any animal dying during the treatment phase, and without any body weight loss of more than 10% compared to the initial weight.
Example 1-1 was administered to female nude mice (NMRI nu/nu):
The treatment phase was followed by an observation phase of 21 days.

[2] = Plasma protein binding by equilibrium dialysis, rat; format: in vitro ADME; details: read-out: fu (rat)
Protocol: The binding of test substances to plasma proteins is determined by equilibrium dialysis by means of the Ht-dialysis apparatus (96-well) made of Teflon and a semipermeable membrane (regenerated cellulose, MWCO 12-14K). This separates 150 μl each of a plasma side and a buffer side (50 mM phosphate buffer). The test substance is added in 2 concentrations (usually 3 and 0.3 μM) to the plasma side and binds to plasma proteins. The unbound fraction of the test substance passes through the membrane and is distributed on either side until equilibrium is established (after approx. 6-8 h at 37° C.). The substance concentration on the buffer side and the plasma side is determined by LC-MS analysis. For this, both sides are brought by dilution with buffer or plasma to the same matrix (10% plasma) and then precipitated with methanol. The free (unbound) fraction (fu) is calculated from the quotient of the buffer and plasma concentration. Stability tests and recovery tests are run concurrently as controls. In addition, the substance in buffer is dialysed against buffer, to check the nonspecific binding to apparatus and membrane and establishment of equilibrium. Because during incubation the osmotic pressure of the plasma proteins leads to dilution of the plasma (volume shift), this possible error is determined by weighing blank plasma samples and is included in the calculation of fu. Establishment of equilibrium and plasma stability should have a value not lower than 80% and the recovery should be at least 30%. A free fraction of <1% is regarded as high, between 1 and 10% as moderate and >10% as low plasma protein binding.

[3] = PC-3 prostate carcinoma xenograft model in the mouse; details: male, NMRI-nude (nu/nu), mouse, in vivo, po
Protocol: (§1) Xenograft models in immunosuppressed mice were used to determine the antitumour activity in living organisms.
(§2) Use was made primarily of a prostate carcinoma model with hormone-independent human PC-3 cells in male nude mice (NMRI-nude (nu/nu) mice, Taconic M&B A/S). To this end, 3 million tumour cells (suspended in medium+Matrigel) 1:1, final 0.1 ml) were injected subcutaneously into the side of each animal. When the tumours extended to an area of 20-30 mm^2., the mice were randomized into therapy groups and therapy was initiated. […] At this point in time, the experiment was terminated in all groups and the prepared tumours were weighed. The T/C value was calculated as primary success parameter using the effect on the final tumour weight: mean tumour weight in the treatment group divided by mean of the tumour weight in the vehicle group.
(§3) Administration route: per os Vehicle: PEG400/ethanol/Solutol HS 15 (70/5/25, v/v/v) Administration volume: 10 ml/kg

[4] = system: PC-3 prostate carcinoma xenograft; assay: as above; details: for T/C: 17 days, 2 administrations per day
Protocol: as §1, §2, §3

[5] = Prediction of human pharmacokinetic parameters and human therapeutic dosage
Protocol: The human pharmacokinetic (PK) parameters (Table 9) were predicted based on the in vivo PK parameters obtained for rats (single species scaling), taking into account the interspecies differences in the free fraction (fu) in the plasma. The effective AUC (area under curve) was determined based on the measured plasma concentration time profile for in vivo efficacy in the PC3 tumour model of the mouse (nu/nu mouse).

[6] = Membrane affinity logMA (MA-Transil); format: physicochemical; details: buffer pH 7.4
human ACC1 = assay: Human ACC1 enzyme assay (ADP-Glo); format: biochemical

SMILES: Cc1ccc(-c2ccc(Cl)c(F)c2)cc1C1=C(O)C2(CCC(F)(F)CC2)NC1=O [Example 1-1, 3-(4′-Chloro-3′-fluoro-4-methylbiphenyl-3-yl)-8,8-difluoro-4-hydroxy-1-azaspiro[4.5]dec-3-en-2-one]
- Deaths ([1]; 12.5 mg/kg per os, 1 administration per day): 0 of 4
- Deaths ([1]; 25 mg/kg per os, 1 administration per day): 0 of 4
- Deaths ([1]; 50 mg/kg per os, 1 administration per day): 0 of 4
- Deaths ([1]; 50 mg/kg per os, 2 administrations per day): 0 of 4
- Deaths ([1]; 75 mg/kg per os, 1 administration per day): 0 of 4
- Deaths ([1]; 100 mg/kg per os, 1 administration per day): 0 of 4
- MTD at 21 days ([1]; 50 mg/kg, administration twice per day): > 50 mg/kg
- MTD at 21 days ([1]; administration once per day): > 100 mg/kg
- fraction unbound [2]: 0.0027
- AUC ([3]; 40 mg/kg): 376 µg·h/mL
- AUC ([3]; 80 mg/kg): 6080 µg·h/mL
- T/C ([4]; 40 mg/kg per os): 0.26
- T/C ([4]; 80 mg/kg day 1-3, 70 mg/kg from day 4 onwards, per os): 0.26
- Reduction in body weight in individual animals ([4]; 80 mg/kg, 2 times per day, after 3 days): more than 10%
- calc. AUC (human) ([5]; from mouse dosage 40 mg/kg 2 × per day): 1882 µg·h/mL
- calc. AUC (human) ([5]; from mouse dosage 80 mg/kg 2 × per day): 3041 µg·h/mL
- pred. CL (human) ([5]; predicted (fu-corrected), single species scaling from rat): 3 mL/h/kg

SMILES: Cc1ccc(-c2ccc(Cl)cc2)cc1C1=C(O)C2(CCC(F)(F)CC2)NC1=O [Example 1-2, 3-(4′-Chloro-4-methylbiphenyl-3-yl)-8,8-difluoro-4-hydroxy-1-azaspiro[4.5]dec-3-en-2-one]
- logMA [6]: 1.83 (1.7-1.9, n = 3)
- Selectivity ACC1 vs. ACC2 (mean of the individual measurements ± standard deviation) (human ACC1): 13.4 ± 4.5

From US20140011853A1, “SUBSTITUTED 3-(BIPHENYL-3-YL)-8,8-DIFLUORO-4-HYDROXY-1-AZASPIRO[4.5]DEC-3-EN-2-ONES FOR THERAPY” (BAYER INTELLECTUAL PROPERTY GMBH, priority 2011, published 2014)
